According to PubChem BioAssay AID1259407 (Chemical Carcinogenesis Research Information System (CCRIS), 2018):
Active and inactive are the calls of the source. How the calls were made is not given here.

Test system: CCRIS mutagenicity, Ames/micronucleus/aberration tests
Assay: CCRIS mutagenicity studies
[1] = Test System: AMES SALMONELLA TYPHIMURIUM, Strain/Indicator: TA98, Metabolic Activation: NONE, Method: STANDARD PLATE
[2] = Test System: AMES SALMONELLA TYPHIMURIUM, Strain/Indicator: TA98, Metabolic Activation: RAT, LIVER, S-9, AROCLOR 1254, Method: STANDARD PLATE
[3] = Test System: AMES SALMONELLA TYPHIMURIUM, Strain/Indicator: TA100, Metabolic Activation: NONE, Method: PREINCUBATION
[4] = Test System: AMES SALMONELLA TYPHIMURIUM, Strain/Indicator: TA100, Metabolic Activation: NONE, Method: STANDARD PLATE
[5] = Test System: AMES SALMONELLA TYPHIMURIUM, Strain/Indicator: TA100, Metabolic Activation: RAT, LIVER, S-9, AROCLOR 1254, Method: STANDARD PLATE
[6] = Test System: AMES SALMONELLA TYPHIMURIUM, Strain/Indicator: TA1535, Metabolic Activation: NONE, Method: STANDARD PLATE
[7] = Test System: AMES SALMONELLA TYPHIMURIUM, Strain/Indicator: TA1535, Metabolic Activation: RAT, LIVER, S-9, AROCLOR 1254, Method: STANDARD PLATE
[8] = Test System: AMES SALMONELLA TYPHIMURIUM, Strain/Indicator: TA1537, Metabolic Activation: NONE, Method: STANDARD PLATE
[9] = Test System: AMES SALMONELLA TYPHIMURIUM, Strain/Indicator: TA1537, Metabolic Activation: RAT, LIVER, S-9, AROCLOR 1254, Method: STANDARD PLATE
[10] = Test System: AMES SALMONELLA TYPHIMURIUM, Strain/Indicator: TA1538, Metabolic Activation: NONE, Method: STANDARD PLATE
[11] = Test System: AMES SALMONELLA TYPHIMURIUM, Strain/Indicator: TA1538, Metabolic Activation: RAT, LIVER, S-9, AROCLOR 1254, Method: STANDARD PLATE

SMILES | mutagenic call (Test System: AMES SALMONELLA TYPHIMURIUM, Strain/Indicator: TA97A, Metabolic Activation: NONE, Method: STANDARD PLATE) | mutagenic call (Test System: AMES SALMONELLA TYPHIMURIUM, Strain/Indicator: TA97A, Metabolic Activation: RAT, LIVER, S-9, AROCLOR 1254, Method: STANDARD PLATE) | mutagenic call [1] | mutagenic call (Test System: AMES SALMONELLA TYPHIMURIUM, Strain/Indicator: TA98, Metabolic Activation: RAT LIVER S-9, 3-METHYLCHOLANTHRENE AND PHENOBARBITAL, Method: STANDARD PLATE) | mutagenic call [2] | mutagenic call [3] | mutagenic call [4] | mutagenic call (Test System: AMES SALMONELLA TYPHIMURIUM, Strain/Indicator: TA100, Metabolic Activation: RAT LIVER S-9, 3-METHYLCHOLANTHRENE AND PHENOBARBITAL, Method: STANDARD PLATE) | mutagenic call [5] | mutagenic call [6] | mutagenic call [7] | mutagenic call [8] | mutagenic call [9] | mutagenic call [10] | mutagenic call [11] | mutagenic call (Test System: AMES SALMONELLA TYPHIMURIUM, Strain/Indicator: TA97, Metabolic Activation: NONE, Method: PREINCUBATION) | mutagenic call (Test System: AMES SALMONELLA TYPHIMURIUM, Strain/Indicator: TA98, Metabolic Activation: NONE, Method: PREINCUBATION) | mutagenic call (Test System: AMES SALMONELLA TYPHIMURIUM, Strain/Indicator: TA104, Metabolic Activation: NONE, Method: PREINCUBATION) | mutagenic call (Test System: CHINESE HAMSTER V-79, Strain/Indicator: V-79/6-THIOGUANINE, Metabolic Activation: NONE)
O=C(O)Cc1c[nH]c2ccccc12 | inactive; negative | inactive; negative | inactive; negative | inactive; negative | inactive; negative | inactive; negative | inactive; negative | inactive; negative | inactive; negative | inactive; negative | inactive; negative | inactive; negative | inactive; negative | inactive; negative | inactive; negative |  |  |  | 
COc1cc(N)cc(OC)c1N |  |  | inactive; negative |  | inactive; negative |  | inactive; negative |  | inactive; negative | inactive; negative | inactive; negative | inactive; negative | inactive; negative | inactive; negative | inactive; negative |  |  |  | 
O[C@H]1[C@H]2O[C@H]2c2c(c3ccccc3c3ccccc23)[C@@H]1O |  |  |  |  |  | active; positive |  |  |  |  |  |  |  |  |  | active; positive | active; positive | active; positive | active; positive
